Data from patent US11413348B2, “Low molecular weight cationic lipids for oligonucleotide delivery” (SIRNA THERAPEUTICS, INC., priority 2010, dated 2022).

Assays:
[1] = Determination of cationic lipid levels in monkey liver (LC/MS-MS); format: in vivo; settings: monkeys, FIG. 7
Protocol: (§1) Liver tissue was weighed into 20-ml vials and homogenized in 9 v/w of water using a GenoGrinder 2000 (OPS Diagnostics, 1600 strokes/min, 5 min). A 50 μL aliquot of each tissue homogenate was mixed with 300 μL of extraction/protein precipitating solvent (50/50 acetonitrile/methanol containing 500 nM internal standard) and the plate was centrifuged to sediment precipitated protein. A volume of 200 μL of each supernatant was then transferred to separate wells of a 96-well plate and 10 μl samples were directly analyzed by LC/MS-MS.
(§2) Standards were prepared by spiking known amounts of a methanol stock solution of compound into untreated rat liver homogenate (9 vol water/weight liver). Aliquots (50 μL) each standard/liver homogenate was mixed with 300 μL of extraction/protein precipitating solvent (50/50 acetonitrile/methanol containing 500 nM internal standard) and the plate was centrifuged to sediment precipitated protein. A volume of 200 μL of each supernatant was transferred to separate wells of a 96-well plate and 10 μl of each standard was directly analyzed by LC/MS-MS.
(§3) Absolute quantification versus standards prepared and extracted from liver homogenate was performed using an Aria LX-2 HPLC system (Thermo Scientific) coupled to an API 4000 triple quadrupole mass spectrometer (Applied Biosystems). […]

[2] = Rat in vivo evaluation of toxicity (serum ALT and AST); settings: ApoB siRNA RDV, tail vein, 24 hours after dosing, FIG. 2
Protocol: Six hours post dose, food is removed from the cages. Animal necropsy is performed 24 hours after LNP dosing. Rats are anesthetized under isoflurane for 5 minutes, then maintained under anesthesia by placing them in nose cones continuing the delivery of isoflurane until ex-sanguination is completed. Blood is collected from the vena cava using a 23 gauge butterfly venipuncture set and aliquoted to serum separator vacutainers for serum chemistry analysis. Punches of the excised caudate liver lobe are taken and placed in RNALater (Ambion) for mRNA analysis. Preserved liver tissue was homogenized and total RNA isolated using a Qiagen bead mill and the Qiagen miRNA-Easy RNA isolation kit following the manufacturer's instructions. Liver ApoB mRNA levels were determined by quantitative RT-PCR. Message was amplified from purified RNA utilizing a rat ApoB commercial probe set (Applied Biosystems Cat #RN01499054_m1). The PCR reaction was performed on an ABI 7500 instrument with a 96-well Fast Block. The ApoB mRNA level is normalized to the housekeeping PPIB (NM 011149) mRNA. PPIB mRNA levels were determined by RT-PCR using a commercial probe set (Applied Biosytems Cat. No. Mm00478295_m1). Results are expressed as a ratio of ApoB mRNA/PPIB mRNA. All mRNA data is expressed relative to the PBS control dose. […]

[3] = tested on: CTNNB1 mRNA; experiment: Rhesus monkey in vivo evaluation of β-catenin efficacy (liver CTNNB1 mRNA); settings: beta-catenin siRNA, doses ranging from 0.67-3.34 mg/m^2, intravenous bolus, FIG. 5
Protocol: On study day −7 predose liver biopsy samples (˜0.5-1 gram/sample) were collected from male rhesus monkeys by laparoscopic surgical resection (resection of one biopsy sample from outer edge of one randomly selected liver lobe per monkey). A 5 mm tissue punch was used to sample three non-adjacent ˜50 mg samples from each predose biopsy. Samples were preserved in RNAlater™ (Ambion) for later CTNNB1 mRNA analysis.
On study day 0 monkeys were administered suspensions of the lipid nanoparticle (LNP) test articles in phosphate buffered saline (0.05-0.1 mg siRNA/mL) via single-dose intravenous bolus injection at target doses of 0.67, 1.34 or 3.34 mg siRNA/m^2. […]
CTNNB1 mRNA levels were measured by relative quantitative RT-PCR using a primer/probe set validated for CTNNB1 and normalized against mRNA levels of peptidylprolyl isomerase B (also known as PPIB or cyclophilin B) and RNA levels of 18S ribosomal RNA (18S rRNA). Change in CTNNB1 mRNA liver expression was measured as the difference in PCR threshold cycle number (ΔΔCt) between post-dose samples and each corresponding monkey's predose liver samples.
Calculation of CTNNB1 mRNA knockdown (with respect to pretreatment levels) was calculated from ΔΔCt using the following relationship: mRNA (% knockdown)=100−(100/2^−ΔΔCt)

[4] = Determination of cationic lipid levels in rat liver (LC/MS-MS); format: in vivo; settings: rats, FIG. 3
Protocol: as §1, §2, §3

| SMILES | cationic lipid liver levels compared with RDV containing DLinKC2DMA (Compound 45) or MC3 (Compound 46) [1] | tolerability (serum ALT and AST) compared with RDV containing DLinKC2DMA (Compound 45) or MC3 (Compound 46) [2] | CTNNB1 mRNA knockdown in liver [3] | cationic lipid liver levels compared with RDV containing DLinKC2DMA (Compound 45) or MC3 (Compound 46) [4] |
| --- | --- | --- | --- | --- |
| CCCCC/C=C\C/C=C\CCCCCCCCCC(CCCCCCCCC)CCN(C)C (centres unmarked) [Compound 32, (13Z,16Z)—N,N-dimethyl-3-nonyldocosa-13,16-dien-1-amine] | lower than | improved tolerability | robust KD | either similar to or lower than |
| CCCCCCCCCC(CCCCCCCC1CC1CCCCCCCC)N(C)C [Compound 33, N,N-dimethyl-1-[(1S,2R)-2-octylcyclopropyl]hepladecan-8-amine] | lower than | improved tolerability | robust KD | either similar to or lower than |
